# Results from patent publication US10130636B2, “High dosage strength tablets of rucaparib” (Clovis Oncology, Inc., priority 2014, dated 2018).
# Read-outs that look alike come from different tables or passages of the source.
# Columns and labels:
# [1] = Hygroscopicity of rucaparib salts; format: physicochemical; conditions: compared to other salts of rucaparib
# [2] = CTC profiles (compressibility, tabletability, compactability) of rucaparib salt intra granular formulations; format: physicochemical; conditions: for formation of compacts: pure API without excipients, maleate also at 90% loading, 100 mg compacts
# Excerpt: The most relevant and broadly accepted approach to assessing compression evaluation of different formulations (and different API salts) is by measuring the interrelationships of compression stress, solid fraction, and tensile strength using a compaction simulator. These parameters are related to each other in a set of relationships referred to as compressibility, tabletability, and compactability profiles (i.e., CTC Profiles) (Tye, Sun, Amidon, J. Pharm. Sci, 94: 465-472, (2005)). Focus was on the intra granular blend rather than the final blend because nearly all of the lead formulation is processed through dry granulation; only a small portion is extra granular. Additionally, the extra granular lubrication step at small scale is not representative of downstream pilot or commercial processing and risks masking intrinsic compressibility properties. For the provided lot of each salt form, formulations were evaluated at 100%, 90%, 75%, and 60% of the final tablet formulation (this correlates to 100%, 90.68%, 75.57%, and 60.45% intra granular components). CTC profiles for each API and formulation were determined by compressing (Texture Technologies model TA.XT Plus Texture Analyzer), in triplicate, 1⁄4'' round flat-faced 100 mg compacts using a linear sawtooth strain profile at 5 mm/sec velocity to four pre-programmed peak forces encompassing roller compaction and tableting compression stress ranges (e.g., up to 240 MPa). The compacts were then evaluated for physical dimensions, weight, and hardness. […] The maximum acceptable compression stress considered within normal ranges of a commercial rotary tablet press is approximately 250 MPa. Similarly, a typical target tensile strength for tablets is 2 MPa; such tablets generally have low friability, and are suitable for downstream handling and film coating. Thus, if a given formulation can be compressed to a tensile strength of 2 MPa at a compression stress of less than 250 MPa, it is considered to have acceptable compressibility.
# [3] = as stated in U.S. Pat. No. 8,754,072; compared to other salt forms; cited from earlier work
# [4] = Drug Load 60%, Compression Stress 47.9 MPa
# [5] = Drug Load 60%, Compression Stress 80.3-80.4 MPa
# [6] = Drug Load 60%, Compression Stress 176.0-177.0 MPa
# [7] = Drug Load 60%, Compression Stress 239.5-240.4 MPa
# [8] = Drug Load 75%, Compression Stress 48.3-48.5 MPa
# [9] = Drug Load 75%, Compression Stress 80.5-80.8 MPa
# [10] = Drug Load 75%, Compression Stress 176.8-177.8 MPa
# [11] = Drug Load 75%, Compression Stress 240.1-240.7 MPa
hygroscopicity [1],"Tensile Strength [2, 4]","Tensile Strength [2, 5]","Tensile Strength [2, 6]","Tensile Strength [2, 7]","Tensile Strength [2, 8]","Tensile Strength [2, 9]","Tensile Strength [2, 10]","Tensile Strength [2, 11]",formation of compacts [2],"tabletability, fold lower than the camsylate salt ([2]; 60 and 75% API loading)","drug loading needed to obtain tablets with sufficient strength ([2]; estimated, target >70%)",Compound,hygroscopicity [3]
low hygroscopicity,0.6 MPa,1.3 MPa,2.6 MPa,3.1 MPa,0.6 MPa,1.1 MPa,2.3 MPa,2.8 MPa,formed good compacts,–,–,"CNCc1ccc(-c2[nH]c3cc(F)cc4c3c2CCNC4=O)cc1 [Camsylate, Rucaparib Camsylate]",less hygroscopic
–,0.3 MPa,0.6 MPa,1.2 MPa,1.4 MPa,0.2 MPa,0.4 MPa,0.8 MPa,0.8 MPa,not able to be formed,2-2.5 ×,< 50%,Rucaparib Maleate,less hygroscopic
